Reference: patent US20070219186A1, “Pyrazolo[1,5-A]pyrimidine derivatives and methods of use thereof” (priority 2006, published 2007)
Like-named read-outs stand apart in the source and are kept apart here.

Biological target: T1, human B-Raf (Homo sapiens, UniProt P15056)
T1 construct: Flag; GST; made in house; host or cells: Sf9 insect cells (B-Raf); E. coli (MEK1-GST)
Assay: B-Raf Kinase to MEK1 ELISA
Format: biochemical
Settings: for inhibition at 10 µM: read-out: % Inhib./10 uM
Method in brief: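 Read-out is a DELFIA europium signal from phospho-MEK1 (Ser217/221) antibody after capture of GST-MEK1 (50 nM final) on anti-GST plates. Phosphorylation comes from Sf9-expressed Flag/GST human B-Raf (~20 ng) with ATP/MgCl2, 60 min RT, pH 7.2 MOPS.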

[1] = median, cpd concentrations from 10 μM to 30 nM in half log dilutions, read-out: Median IC50

T1 sequence (P15056 whole entry): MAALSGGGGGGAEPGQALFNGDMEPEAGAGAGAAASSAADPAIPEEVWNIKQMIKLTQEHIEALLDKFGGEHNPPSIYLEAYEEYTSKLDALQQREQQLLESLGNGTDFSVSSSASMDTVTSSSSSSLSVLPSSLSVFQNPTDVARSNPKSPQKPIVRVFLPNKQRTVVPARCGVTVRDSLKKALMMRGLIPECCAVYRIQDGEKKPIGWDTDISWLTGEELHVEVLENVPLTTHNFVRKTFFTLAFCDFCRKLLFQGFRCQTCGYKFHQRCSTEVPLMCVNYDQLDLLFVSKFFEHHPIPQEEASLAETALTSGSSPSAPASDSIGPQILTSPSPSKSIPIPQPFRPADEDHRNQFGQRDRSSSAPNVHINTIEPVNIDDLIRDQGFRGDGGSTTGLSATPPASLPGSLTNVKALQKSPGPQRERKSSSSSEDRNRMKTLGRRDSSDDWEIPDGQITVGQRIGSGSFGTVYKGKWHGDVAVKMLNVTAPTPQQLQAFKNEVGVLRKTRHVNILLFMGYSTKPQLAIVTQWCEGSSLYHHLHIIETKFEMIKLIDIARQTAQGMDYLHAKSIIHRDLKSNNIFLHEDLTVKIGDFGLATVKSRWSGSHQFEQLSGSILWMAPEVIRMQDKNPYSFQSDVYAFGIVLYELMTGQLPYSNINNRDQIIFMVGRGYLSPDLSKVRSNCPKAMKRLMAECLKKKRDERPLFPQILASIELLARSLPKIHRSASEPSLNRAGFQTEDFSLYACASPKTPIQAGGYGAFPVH

Compound	IC50 [1]	inhibition at 10 µM	IC50	inhibition at 10 µM (single point assay, 10 uM)	% Inhib./10 uM (single point assay, 10 uM)
O=C(Nc1cccc(-c2ccnc3c(-c4cccnc4)cnn23)c1)c1ccc(F)c(C(F)(F)F)c1 [Example 171, 4-fluoro-N-[3-(3-pyridin-3-ylpyrazolo[1,5-a]pyrimidin-7-yl)phenyl]-3-(trifluoromethyl)benzamide]	0.38 µM	87%			
O=C(Nc1cccc(-c2ccnc3cc(-c4ccco4)nn23)c1)c1cccc(C(F)(F)F)c1 [Example 113, N-{3-[2-(2-furyl)pyrazolo[1,5-a]pyrimidin-7-yl]phenyl}-3-(trifluoromethyl)benzamide]	> 10 µM	45%			
CCOC(=O)c1cnn2c(-c3cccc(NC(=O)Nc4c(C)cc(C)cc4C)c3)ccnc12 [Example 22, ethyl 7-(3-{[(mesitylamino)carbonyl]amino}phenyl)pyrazolo[1,5-a]pyrimidine-3-carboxylate]	> 10 µM	34%			
CCOC(=O)c1cnn2c(-c3cccc(NC(=O)Nc4cccc(C(F)(F)F)c4)c3)ccnc12 [Example 33, ethyl 7-{3-[({[3-(trifluoromethyl)phenyl]amino}carbonyl)amino]phenyl}pyrazolo[1,5-a]pyrimidine-3-carboxylate]	0.68 µM	80%			
O=C(Nc1cccc(-c2ccnc3c(-c4ccccn4)cnn23)c1)c1cccc(C(F)(F)F)c1 [Example 59, N-[3-(3-pyridin-2-ylpyrazolo[1,5-a]pyrimidin-7-yl)phenyl]-3-(trifluoromethyl)benzamide]	> 10 µM	37%			
CCOC(=O)c1cnn2c(-c3cccc(NC(=O)Nc4ccc(SC(F)(F)F)cc4)c3)ccnc12 [Example 24, ethyl 7-(3-{[({4-[(trifluoromethyl)thio]phenyl}amino)carbonyl]amino}phenyl)pyrazolo[1,5-a]pyrimidine-3-carboxylate]	> 10 µM	11%			
CCOC(=O)c1cnn2c(-c3cccc(NC(=O)c4ccccc4)c3)ccnc12 [Example 3, Pyrazolo[1,5-a]pyrimidine-3-carboxylic acid, 7-[3-(benzoylamino)phenyl]-, ethyl ester]	> 20 µM	4%			
O=C(Nc1cccc(-c2ccnc3cc(-c4ccnc(NCCCN5CCOCC5)c4)nn23)c1)c1cccc(C(F)(F)F)c1 [Example 258, N-[3-(2-{2-[(3-morpholin-4-ylpropyl)amino]pyridin-4-yl}pyrazolo[1,5-a]pyrimidin-7-yl)phenyl]-3-(trifluoromethyl)benzamide]			0.134 µM		95%
O=C(Nc1cccc(-c2ccnc3cc(-c4ccccn4)nn23)c1)c1cccc(C(F)(F)F)c1 [Example 111, N-[3-(2-pyridin-2-ylpyrazolo[1,5-a]pyrimidin-7-yl)phenyl]-3-(trifluoromethyl)benzamide]	> 3 µM	24%			
O=C(Nc1cccc(-c2ccnc3cc(-c4ccc(CO)cc4)nn23)c1)c1cccc(C(F)(F)F)c1 [Example 135, N-(3-{2-[4-(hydroxymethyl)phenyl]pyrazolo[1,5-a]pyrimidin-7-yl}phenyl)-3-(trifluoromethyl)benzamide]	> 10 µM	32%			
O=C(Nc1cccc(-c2ccnc3c(-c4cccnc4)cnn23)c1)Nc1ccc(Cl)c(Cl)c1 [Example 175, N-(3,4-dichlorophenyl)-N′-[3-(3-pyridin-3-ylpyrazolo[1,5-a]pyrimidin-7-yl)phenyl]urea]	0.45 µM	70%			
Cc1ccc(C(=O)Nc2cccc(-c3ccnc4c(Br)cnn34)c2)cc1C(F)(F)F [Example 161, N-[3-(3-bromopyrazolo[1,5-a]pyrimidin-7-yl)phenyl]-4-methyl-3-(trifluoromethyl)benzamide]		87%	0.67 µM		
CCOC(=O)c1cnn2c(-c3cccc(NC(=O)c4cc(C(F)(F)F)ccc4C)c3)ccnc12 [Example 104, ethyl 7-(3-{[2-methyl-5-(trifluoromethyl)benzoyl]amino}phenyl)pyrazolo[1,5-a]pyrimidine-3-carboxylate]	10.1 µM			1%	
Cc1ccc(C(=O)Nc2cccc(-c3ccnc4c(-c5ccccn5)cnn34)c2)cc1C(F)(F)F [Example 65, 4-methyl-N-[3-(3-pyridin-2-ylpyrazolo[1,5-a]pyrimidin-7-yl)phenyl]-3-(trifluoromethyl)benzamide]	> 10 µM	30%			
CCOC(=O)c1cnn2c(-c3ccc(Cl)c(NC(=O)c4cccc(C(F)(F)F)c4)c3)ccnc12 [Example 86, ethyl 7-(4-chloro-3-{[3-(trifluoromethyl)benzoyl]amino}phenyl)pyrazolo[1,5-a]pyrimidine-3-carboxylate]	> 10 µM	18%			
COc1ccc(C(=O)Nc2cccc(-c3ccnc4c(Br)cnn34)c2)cc1C(F)(F)F [Example 162, N-[3-(3-bromopyrazolo[1,5-a]pyrimidin-7-yl)phenyl]-4-methoxy-3-(trifluoromethyl)benzamide]		75%	2.1 µM		
O=C(Nc1cccc(-c2ccnc3cc(-c4ccncc4)nn23)c1)c1ccc(Cl)c(Cl)c1 [Example 149, 3,4-dichloro-N-[3-(2-pyridin-4-ylpyrazolo[1,5-a]pyrimidin-7-yl)phenyl]benzamide]		72%	1.25 µM		
COc1cccc(C(=O)Nc2cccc(-c3ccnc4cc(-c5ccncc5)nn34)c2)c1 [Example 146, 3-methoxy-N-[3-(2-pyridin-4-ylpyrazolo[1,5-a]pyrimidin-7-yl)phenyl]benzamide]			4 µM		
CCOC(=O)c1cnn2c(-c3cccc(NC(=O)Nc4ccc(SC)cc4)c3)ccnc12 [Example 18, ethyl 7-{3-[({[4-(methylthio)phenyl]amino}carbonyl)amino]phenyl}pyrazolo[1,5-a]pyrimidine-3-carboxylate]	> 10 µM	0%			
CN(C)CCCc1cc2nccc(-c3cccc(NC(=O)c4cccc(C(F)(F)F)c4)c3)n2n1 [Example 110, N-(3-{2-[3-(dimethylamino)propyl]pyrazolo[1,5-a]pyrimidin-7-yl}phenyl)-3-(trifluoromethyl)benzamide]	> 10 µM	24%			

Further lines, with some results ahead:

IC50 [1]	inhibition at 10 µM	IC50	inhibition at 10 µM (single point assay, 10 uM)	Compound	% Inhib./10 uM (single point assay, 10 uM)
> 10 µM	20%			CCOC(=O)c1cnn2c(-c3cccc(NC(=O)c4cccc(C)c4)c3)ccnc12 [Example 242, ethyl 7-{3-[(3-methylbenzoyl)amino]phenyl}pyrazolo[1,5-a]pyrimidine-3-carboxylate]	
2.06 µM	80%			CN(CCN)c1cc(-c2cc3nccc(-c4cccc(NC(=O)c5cccc(C(F)(F)F)c5)c4)n3n2)ccn1 [Example 270, N-[3-(2-{2-[(2-aminoethyl)(methyl)amino]pyridin-4-yl}pyrazolo[1,5-a]pyrimidin-7-yl)phenyl]-3-(trifluoromethyl)benzamide]	
	89%	0.084 µM		O=C(Nc1cccc(-c2ccnc3c(-c4cn[nH]c4)cnn23)c1)c1cccc(C(F)(F)F)c1 [Example 275, N-{3-[3-(1H-pyrazol-4-yl)pyrazolo[1,5-a]pyrimidin-7-yl]phenyl}-3-(trifluoromethyl)benzamide]	
	93%	0.057 µM		NC(=O)c1cccc(-c2cnn3c(-c4cccc(NC(=O)c5cccc(C(F)(F)F)c5)c4)ccnc23)c1 [Example 271, N-(3-{3-[3-(aminocarbonyl)phenyl]pyrazolo[1,5-a]pyrimidin-7-yl}phenyl)-3-(trifluoromethyl)benzamide]	
	63%	0.619 µM		CC(=O)c1cccc(-c2cnn3c(-c4cccc(NC(=O)c5cccc(C(F)(F)F)c5)c4)ccnc23)c1 [Example 299, N-{3-[3-(3-acetylphenyl)pyrazolo[1,5-a]pyrimidin-7-yl]phenyl}-3-(trifluoromethyl)benzamide]	
> 10 µM	78%			O=Cc1ccc(-c2cnn3c(-c4cccc(NC(=O)c5cccc(C(F)(F)F)c5)c4)ccnc23)o1 [Example 313, N-{3-[3-(5-formyl-2-furyl)pyrazolo[1,5-a]pyrimidin-7-yl]phenyl}-3-(trifluoromethyl)benzamide]	
	54%	0.893 µM		Cc1ccccc1-c1cnn2c(-c3cccc(NC(=O)c4cccc(C(F)(F)F)c4)c3)ccnc12 [Example 305, N-{3-[3-(2-methylphenyl)pyrazolo[1,5-a]pyrimidin-7-yl]phenyl}-3-(trifluoromethyl)benzamide]	
> 10 µM	26%			O=C(Nc1cccc(-c2ccnc3c(-c4ccc(C(F)(F)F)cc4)cnn23)c1)c1cccc(C(F)(F)F)c1 [Example 292, 3-(trifluoromethyl)-N-(3-{3-[4-(trifluoromethyl)phenyl]pyrazolo[1,5-a]pyrimidin-7-yl}phenyl)benzamide]	
0.117 µM	92%			CN(C)Cc1ccccc1-c1cnn2c(-c3cccc(NC(=O)c4cccc(C(F)(F)F)c4)c3)ccnc12 [Example 272, N-[3-(3-{2-[(dimethylamino)methyl]phenyl}pyrazolo[1,5-a]pyrimidin-7-yl)phenyl]-3-(trifluoromethyl)benzamide]	
	67%	0.367 µM		O=C(Nc1cccc(-c2ccnc3c(-c4ccccc4C(F)(F)F)cnn23)c1)c1cccc(C(F)(F)F)c1 [Example 290, 3-(trifluoromethyl)-N-(3-{3-[2-(trifluoromethyl)phenyl]pyrazolo[1,5-a]pyrimidin-7-yl}phenyl)benzamide]	
0.94 µM	68%			O=C(Nc1cccc(-c2ccnc3c(-c4ccncc4)cnn23)c1)c1ccc(F)c(C(F)(F)F)c1 [Example 190, 4-fluoro-N-[3-(3-pyridin-4-ylpyrazolo[1,5-a]pyrimidin-7-yl)phenyl]-3-(trifluoromethyl)benzamide]	
